Reference: ChEMBL document CHEMBL1649168, “Susceptibility of human immunodeficiency virus type 1 to the maturation inhibitor bevirimat is modulated by baseline polymorphisms in Gag spacer peptide 1” (Antimicrob Agents Chemother, 2009)

How the values were obtained:
[1] = tested on: Human immunodeficiency virus 1; experiment: Antiviral activity against HIV1 HXB2 harboring SP1 T8N mutant gene relative to wild type; type: functional
[2] = tested on: Human immunodeficiency virus 1; experiment: Antiviral activity against HIV1 NL4.3 harboring SP1 T8A mutant gene relative to wild type; type: functional
[3] = tested on: Human immunodeficiency virus 1; experiment: Antiviral activity against HIV1 HXB2 harboring SP1 T8delta mutant gene relative to wild type; type: functional
[4] = tested on: Human immunodeficiency virus 1; experiment: Antiviral activity against HIV1 NL4.3 harboring SP1 T8delta mutant gene relative to wild type; type: functional
[5] = tested on: Human immunodeficiency virus 1; experiment: Antiviral activity against HIV1 NL4.3 harboring SP1 V7M mutant gene relative to wild type; type: functional
[6] = tested on: Human immunodeficiency virus 1; experiment: Antiviral activity against HIV1 HXB2 harboring SP1 V7M mutant gene relative to wild type; type: functional
[7] = tested on: Human immunodeficiency virus 1; experiment: Antiviral activity against HIV1 HXB2 harboring SP1 V7A mutant gene relative to wild type; type: functional
[8] = tested on: Human immunodeficiency virus 1; experiment: Antiviral activity against HIV1 NL4.3 harboring SP1 V7A mutant gene relative to wild type; type: functional
[9] = tested on: Human immunodeficiency virus 1; experiment: Antiviral activity against HIV1 NL4.3 harboring SP1 V7delta mutant gene relative to wild type; type: functional
[10] = tested on: Human immunodeficiency virus 1; experiment: Antiviral activity against HIV1 HXB2 harboring SP1 Q6H mutant gene relative to wild type; type: functional
[11] = tested on: Human immunodeficiency virus 1; experiment: Antiviral activity against HIV1 NL4.3 harboring SP1 Q6A mutant gene relative to wild type; type: functional
[12] = tested on: Human immunodeficiency virus 1; experiment: Antiviral activity against HIV1 NL4.3 harboring SP1 Q6H mutant gene relative to wild type; type: functional
[13] = tested on: Human immunodeficiency virus 1; experiment: Antiviral activity against HIV1 NL4.3 harboring SP1 A1V mutant gene relative to wild type; type: functional
[14] = tested on: Human immunodeficiency virus 1; experiment: Antiviral activity against HIV1 NL4.3 harboring SP1 L231M mutant gene relative to wild type; type: functional
[15] = tested on: Human immunodeficiency virus 1; experiment: Antiviral activity against HIV1 NL4.3 harboring SP1 mutant gene relative to wild type; type: functional
[16] = tested on: Human immunodeficiency virus 1; experiment: Antiviral activity against HIV1 PA100 harboring SP1 mutant gene relative to wild type; type: functional
[17] = tested on: Human immunodeficiency virus 1; experiment: Antiviral activity against HIV1 PA109 harboring SP1 mutant gene relative to wild type; type: functional
[18] = tested on: Human immunodeficiency virus 1; experiment: Antiviral activity against HIV1 PA105 harboring SP1 mutant gene relative to wild type; type: functional
[19] = tested on: Human immunodeficiency virus 1; experiment: Antiviral activity against HIV1 PA106 harboring SP1 mutant gene relative to wild type; type: functional
[20] = tested on: Human immunodeficiency virus 1; experiment: Antiviral activity against HIV1 PA111 harboring SP1 mutant gene relative to wild type; type: functional
[21] = tested on: Human immunodeficiency virus 1; experiment: Antiviral activity against HIV1 PA108 harboring SP1 mutant gene relative to wild type; type: functional
[22] = tested on: Human immunodeficiency virus 1; experiment: Antiviral activity against HIV1 PA119 harboring SP1 mutant gene relative to wild type; type: functional
[23] = tested on: Human immunodeficiency virus 1; experiment: Antiviral activity against HIV1 PA118 harboring SP1 mutant gene relative to wild type; type: functional
[24] = tested on: Human immunodeficiency virus 1; experiment: Antiviral activity against HIV1 PA114 harboring SP1 mutant gene relative to wild type; type: functional
[25] = tested on: Human immunodeficiency virus 1; experiment: Antiviral activity against HIV1 PA103 harboring SP1 mutant gene relative to wild type; type: functional
[26] = tested on: Human immunodeficiency virus 1; experiment: Antiviral activity against HIV1 PA101 harboring SP1 mutant gene relative to wild type; type: functional
[27] = tested on: Human immunodeficiency virus 1; experiment: Antiviral activity against HIV1 PA107 harboring SP1 mutant gene relative to wild type; type: functional
[28] = tested on: Human immunodeficiency virus 1; experiment: Antiviral activity against HIV1 PA102 harboring SP1 mutant gene relative to wild type; type: functional
[29] = tested on: Human immunodeficiency virus 1; experiment: Antiviral activity against HIV1 PA104 harboring SP1 mutant gene relative to wild type; type: functional
[30] = tested on: Human immunodeficiency virus 1; experiment: Antiviral activity against HIV1 PA116 harboring SP1 mutant gene relative to wild type; type: functional
[31] = tested on: Human immunodeficiency virus 1; experiment: Antiviral activity against HIV1 PA113 harboring SP1 mutant gene relative to wild type; type: functional
[32] = tested on: Human immunodeficiency virus 1; experiment: Antiviral activity against HIV1 PA117 harboring SP1 mutant gene relative to wild type; type: functional
[33] = tested on: Human immunodeficiency virus 1; experiment: Antiviral activity against HIV1 PA112 harboring SP1 mutant gene relative to wild type; type: functional
[34] = tested on: Human immunodeficiency virus 1; experiment: Antiviral activity against HIV1 PA115 harboring SP1 mutant gene relative to wild type; type: functional
[35] = tested on: Human immunodeficiency virus 1; experiment: Antiviral activity against HIV1 PA110 harboring SP1 mutant gene relative to wild type; type: functional
[36] = tested on: Human immunodeficiency virus 1; experiment: Antiviral activity against HIV1 HXB2 harboring SP1 mutant gene relative to wild type; type: functional
[37] = tested on: Human immunodeficiency virus 1; experiment: Antiviral activity against HIV1 clinical isolates; type: functional, organism-based
[38] = tested on: Human immunodeficiency virus 1; experiment: Antiviral activity against HIV1 HXB2 harboring SP1 Q6H/V7A mutant gene relative to wild type; type: functional
[39] = tested on: Human immunodeficiency virus 1; experiment: Antiviral activity against HIV1 HXB2 harboring SP1 Q6H/T8delta mutant gene relative to wild type; type: functional
[40] = tested on: Human immunodeficiency virus 1; experiment: Antiviral activity against HIV1 HXB2 harboring SP1 Q6H/T8N mutant gene relative to wild type; type: functional
[41] = tested on: Human immunodeficiency virus 1; experiment: Antiviral activity against HIV1 HXB2 harboring SP1 V7A/T8delta mutant gene relative to wild type; type: functional
[42] = tested on: Human immunodeficiency virus 1; experiment: Antiviral activity against HIV1 HXB2 harboring SP1 V7A/T8N mutant gene relative to wild type; type: functional
[43] = tested on: Human immunodeficiency virus 1; experiment: Antiviral activity against HIV1 HXB2 harboring SP1 Q6H /V7A/T8delta mutant gene relative to wild type; type: functional
[44] = tested on: Human immunodeficiency virus 1; experiment: Antiviral activity against HIV1 HXB2 harboring SP1 Q6H /V7A/T8N mutant gene relative to wild type; type: functional

C=C(C)[C@@H]1CC[C@]2(C(=O)O)CC[C@]3(C)[C@H](CC[C@@H]4[C@@]5(C)CC[C@H](OC(=O)CC(C)(C)C(=O)O)C(C)(C)[C@@H]5CC[C@]43C)[C@@H]12 [BEVIRIMAT]
fold change (FC) [1]: 52
fold change (FC) [2]: 1.2
fold change (FC) [3]: 52.2
fold change (FC) [4]: 10.9
fold change (FC) [5]: 25.3
fold change (FC) [6]: >113
fold change (FC) [7]: >151.4
fold change (FC) [8]: 45.8
fold change (FC) [9]: 65.5
fold change (FC) [10]: 2.3
fold change (FC) [11]: 0.9
fold change (FC) [12]: 1.9
fold change (FC) [13]: >77.5
fold change (FC) [14]: 37.6
fold change (FC) [15]: 1.1
fold change (FC) [16]: >125.4
fold change (FC) [17]: >125.4
fold change (FC) [18]: >125.4
fold change (FC) [19]: >119.5
fold change (FC) [20]: >119.5
fold change (FC) [21]: >116.6
fold change (FC) [22]: >106.4
fold change (FC) [23]: >113.7
fold change (FC) [24]: >106.1
fold change (FC) [25]: >83.2
fold change (FC) [26]: >76.1
fold change (FC) [27]: 9.8
fold change (FC) [28]: 5.6
fold change (FC) [29]: 9.3
fold change (FC) [30]: 4.5
fold change (FC) [31]: 2.3
fold change (FC) [32]: 1.9
fold change (FC) [33]: 1.9
fold change (FC) [34]: 0.9
fold change (FC) [35]: 1.5
fold change (FC) [36]: 1.7
IC50 [37]: 10 nM
fold change (FC) [38]: >115.1
fold change (FC) [39]: >111
fold change (FC) [40]: >122.5
fold change (FC) [41]: >130.6
fold change (FC) [42]: >157.2
fold change (FC) [43]: >144.3
fold change (FC) [44]: >132.3
